According to patent US9889081B2, “Aldehyde dehydrogenase inhibitors as novel depigmenting agents” (The Regents of the University of California, priority 2008, dated 2018):

Assays:
melanoma cells = details: cited from earlier work
tyrosinase [1] = test: Drug treatment, tyrosinase immunoblot in MNT-1 cells; format: cell-based, human; details: 5 uM, doses equivalent to those required for inhibition of Aldh activity in culture
Description: (§1) FIG. 2A-G. Novel, pharmaceutically-tractable melanogenesis gene networks converge on tyrosinase expression. a, 4 days post transfection with the indicated siRNAs, MNT-1 whole cell lysates were prepared and analyzed by immunoblot for the indicated proteins. A non-targeting siRNA was used as a transfection control (Control). ERK1/2 is shown as a loading control. b, Those siRNAs that inhibited tryosinase accumulation were examined for consequences on Tyrosinase and MITF gene expression by quantitative rt-PCR. c, The indicated siRNAs, targeting novel pigmentation genes identified in the MNT-1 screen, were tested for consequences on tyrosinase protein accumulation in darkly pigmented primary human melanocyte cultures 6 days post transfection as in a. d, The indicated siRNAs, targeting novel pigmentation genes identified in the MNT-1 screen, were tested for consequences on tyrosinase protein accumulation in moderately pigmented primary human melanocyte cultures 6 days post transfection as in a. e, Pharmacological inhibition of Aldh activity impacts tyrosinase protein accumulation. […] Tyrosinase and ERK1/2 levels were assessed by immunoblot. […]
(§2) 1×10^4 MNT-1 cells were plated in a 96 well microtiter plate. […] Cells were incubated for an additional 7 days, with one media change on day 4, prior to collection of absorbance and viability values. […]

MNT-1 cells = test: Drug treatment, pigmentation in MNT-1 cells; format: cell-based, human; details: doses equivalent to those required for inhibition of Aldh activity in culture
Description: For further analyses, we focused on those novel pigmentation genes that impacted tyrosinase expression in all three genetic backgrounds. Among these were two isoforms of aldehyde dehydrogenase, Aldh1 and Aldh9, well characterized enzymes that regulate ethanol detoxification (Edenberg 2007). A number of chemical inhibitors of these enzymes have been identified (DeMaster et al. 1998), and several of these agents are clinically utilized to induce alcohol intolerance during detoxification interventions; presenting an opportunity for pharmacological validation of the contribution of Aldh activity to melanocyte pigmentation.
1×10^4 MNT-1 cells were plated in a 96 well microtiter plate. 24 hours after plating, cells were incubated with either vehicle, hydroquinone Angeli's salt, or cyanamide. 48 hours after drug treatment, cell lysates were prepared and subjected to immunoblotting with a tyrosinase and ERK antibody. Similar protocols were utilized in primary melanocytes. Melanocytes were plated in 96 well microtiter plate in the presence of drug or vehicle. 24 hours after drug treatment, melanocytes were treated with UV. Cell lysates were prepared 24 hours after UV treatment and subjected to immunoblotting. […] Cells were incubated for an additional 7 days, with one media change on day 4, prior to collection of absorbance and viability values. […]

tyrosinase [2] = test: UV-induced tyrosinase expression in primary melanocytes, immunoblot; format: cell-based, human; details: cyanamide 100 uM, UV-B 24 hours post treatment
Description: as §1, §2

[3] = system: primary human melanocytes; details: Hall and Orlow 2005; cited from earlier work
tyrosinase [4] = test: Bafilomycin rescue of tyrosinase accumulation after siRNA depletion, immunoblot; format: cell-based, human; details: MNT-1 cells, 25 nM bafilomycin
Description: FIG. 2A-G. Novel, pharmaceutically-tractable melanogenesis gene networks converge on tyrosinase expression. a, 4 days post transfection with the indicated siRNAs, MNT-1 whole cell lysates were prepared and analyzed by immunoblot for the indicated proteins. A non-targeting siRNA was used as a transfection control (Control). ERK1/2 is shown as a loading control. b, Those siRNAs that inhibited tryosinase accumulation were examined for consequences on Tyrosinase and MITF gene expression by quantitative rt-PCR. c, The indicated siRNAs, targeting novel pigmentation genes identified in the MNT-1 screen, were tested for consequences on tyrosinase protein accumulation in darkly pigmented primary human melanocyte cultures 6 days post transfection as in a. d, The indicated siRNAs, targeting novel pigmentation genes identified in the MNT-1 screen, were tested for consequences on tyrosinase protein accumulation in moderately pigmented primary human melanocyte cultures 6 days post transfection as in a. e, Pharmacological inhibition of Aldh activity impacts tyrosinase protein accumulation. MNT-1 cells (left panel) and primary melanomcyte cultures (right panels) were exposed to 5 uM Aldh inhibitors (cyanamide or Angeli's salt) or the tyrosinase inhibitor hydroxyquinone(Kim and Uyama 2005) for 72 hours as indicated. 24 hours post treatment, cultures were exposed to UV-B at the doses indicated. Tyrosinase and ERK1/2 levels were assessed by immunoblot. […] Subsequently, cells were lysed in Cell Titer Glo and the luminescence and absorbance values were used to calculate inhibition of pigmentation as in FIG. 1a. g, MNT-1 cells transfected with the indicated siRNAs as in a were incubated in the presence and absence of bafilomycin A2 for 24 hours prior to lyses and analyses of tyrosinase protein accumulation. […]
as §2

[5] = system: primary human melanocytes; test: Pigment production in darkly pigmented primary human melanocytes, 7 days with drug; format: cell-based; details: seven days
Description: as §1, §2

[6] = 24 hour inhibition of lysosome acidification

| SMILES | toxicity (melanoma cells) | tyrosinase protein accumulation (tyrosinase [1]) | pigmentation (MNT-1 cells) | UV-induced tyrosinase expression (tyrosinase [2]) | other results |
| --- | --- | --- | --- | --- | --- |
| [Na+].[Na+].[O-][N+]([O-])=NO [Angeli's salt] | non-toxic | inhibited | inhibited pigmentation | impaired UV-induced tyrosinase expression |  |
| CCN(CC)C(=S)SSC(=S)N(CC)CC [Disulfiram] | toxic to melanoma cells |  |  |  |  |
| NC(=S)Nc1ccccc1 [PTU, phenylthiourea] |  |  |  |  | in vitro pigment inhibition [3]: most potent currently known in vitro pigment inhibitor |
| CO/C1=C\C(C)=C\[C@@H](C)[C@@H](O)[C@@H](C)C/C(C)=C/C=C/[C@H](OC)[C@@H]([C@@H](C)[C@@H](O)[C@H](C)[C@@]2(O)C[C@@H](O)[C@H](C)[C@@H](C(C)C)O2)OC1=O [bafilomycin, bafilomycin A] |  |  |  |  | tyrosinase accumulation upon depletion of Msra (tyrosinase [4]): did not restore tyrosinase accumulation; tyrosinase accumulation upon depletion of Rab4a (tyrosinase [4]; [6]): rescued tyrosinase accumulation; tyrosinase accumulation upon depletion of Zdhhc9 (tyrosinase [4]; [6]): rescued tyrosinase accumulation |
| N#CN [cyanamide] | non-toxic | inhibited | inhibited pigmentation | impaired UV-induced tyrosinase expression | melanogenesis [5]: impair melanogenesis |
